Values after ≈ are worked out from the molar mass of the structure shown. Where two headings read alike, the source gives them in different places.
Legend:
Bacillus subtilis = assay: antibacterial MIC, broth tube dilution; type: cell-based
Excerpt: (§1) In this paper, the synthesis, characterization, and biological evaluation of the novel tetrahydropyrimidines—THPMs are described. THPMs are well-known for wide pharmacological activities such as antimicrobial, anticancer, antiviral, etc. This research includes obtained results of in vitro antimicrobial, anticancer, and α-glucosidase inhibitory activities of the eleven novel THPMs. An antibiotic assessment was done against five bacteria (two Gram-positive and three Gram-negative) and five fungi by determining the minimal inhibitory concentration (MIC), using the broth tube dilution method. […] The cytotoxic activity was performed on the tumor cell lines (HeLa, K562, and MDA-MB-231) and normal cells (MRC-5). The best antitumor activity was shown by compounds 4b and 4k against HeLa cell lines.
(§2) All materials and methods used for biological examination (antibacterial, antifungal, anticancer, and α-glucosidase inhibitory activities) and crystal structure determination are presented in the Supplementary Materials, File S1.

Escherichia coli = assay: antibacterial MIC, broth tube dilution; type: cell-based
Excerpt: as §1, §2

Klebsiella oxytoca = assay: antibacterial MIC, broth tube dilution; type: cell-based
Excerpt: as §1, §2

Proteus mirabilis = assay: antibacterial MIC, broth tube dilution; type: cell-based; conditions: ND = not detected, read-out: MIC
Excerpt: as §1, §2

Staphylococcus aureus = assay: antibacterial MIC, broth tube dilution; type: cell-based
Excerpt: as §1, §2

Aspergillus flavus = assay: antifungal MIC, broth tube dilution; type: cell-based
Excerpt: as §1, §2

Aspergillus niger = assay: antifungal MIC, broth tube dilution; type: cell-based
Excerpt: as §1, §2

Mucor mucedo = assay: antifungal MIC, broth tube dilution; type: cell-based
Excerpt: as §1, §2

Penicillium italicum = assay: antifungal MIC, broth tube dilution; type: cell-based
Excerpt: as §1, §2

[1] = tested on: Trichophyton mentagrophytes; assay: antifungal MIC, broth tube dilution; type: cell-based
Excerpt: as §1, §2

HeLa cells [2] = assay: cytotoxic activity; type: cell-based; conditions: for IC50: HeLa, three independent experiments in triplicate, read-out: IC50 Average ± SD
Excerpt: (§3) All materials and methods used for biological examination (antibacterial, antifungal, anticancer, and α-glucosidase inhibitory activities) and crystal structure determination are presented in the Supplementary Materials, File S1. The cytotoxic activity of eleven novel compounds was examined against HeLa, K562, MDA-MB-231, and MRC-5. The tested compounds exerted concentration-dependent cytotoxic effects on cell lines. […] Compared to compound 4j, 4k has a methyl group in para position of benzoyl fragment; so, probably this structural difference is responsible for better activity and selectivity of compound 4k on HeLa (43.63 ± 1.49 µM) and K562 (39.11 ± 2.90 µM).

K562 cells = assay: cytotoxic activity; type: cell-based; conditions: for IC50: K562, three independent experiments in triplicate, read-out: IC50 Average ± SD
Excerpt: as §3

MDA-MB-231 cells = assay: cytotoxic activity; type: cell-based; conditions: three independent experiments in triplicate, read-out: IC50 Average ± SD
Excerpt: as §3

[3] = tested on: normal human lung fibroblasts MRC-5; assay: cytotoxic activity on normal cells; type: cell-based; conditions: MRC5, MRC-5 normal fibroblasts, three independent experiments in triplicate, read-out: IC50 Average ± SD
Excerpt: as §2
The cytotoxic activity of eleven novel compounds was examined against HeLa, K562, MDA-MB-231, and MRC-5.
The cytotoxic activity was examined against HeLa, K562, MDA-MB-231 cells, and normal human lung fibroblasts MRC-5. […] In addition, the effects of the 4k and 4b on the cell cycle were examined.

α-glucosidase = α-glucosidase inhibitory activity; type: biochemical; conditions: average ± SD of two experiments
Excerpt: as §2

HeLa cells [4] = assay: cell-cycle phase distribution; type: cell-based; conditions: 24 h, IC50 and 2IC50 concentrations, vs untreated control
Excerpt: as §2
The observed changes in the amounts of treated cells within subG1 and G1 phases of the cell cycle were accompanied with decreased percentages of cells within the S and G2/M phases.
The data shown represent the average ± standard deviation of two independent experiments.

HeLa cells [5] = assay: morphological evaluation of cell death mode, acridine orange/ethidium bromide staining; type: cell-based; conditions: 24 h, 2IC50 concentration
Procedure: as §2
The photomicrographs of control HeLa cells and HeLa cells incubated for 24 h with 2IC50 concentrations of the compounds 4b and 4k and stained with a mixture of acridine orange/ethidium bromide are presented in Figure 5. […] Orange-red-stained shrunken cells with condensed chromatin in later stages of apoptosis were detected as well. […] The proapoptotic effect of compound 4b was to some extent stronger when comparing with effect of compound 4k.
Figure 5 Photomicrographs of acridine orange/ethidium bromide-stained control HeLa cells and HeLa cells incubated with 2IC50 concentrations of compounds 4b and 4k during 24 h (magnification 20×). Representative photomicrographs are shown.

Row | Compound | MIC (Bacillus subtilis) [µg/mL] | MIC (Escherichia coli) [µg/mL] | MIC (Klebsiella oxytoca) [µg/mL] | MIC (Proteus mirabilis) [µg/mL] | MIC (Staphylococcus aureus) [µg/mL] | MIC (Aspergillus flavus) [µg/mL] | MIC (Aspergillus niger) [µg/mL] | MIC (Mucor mucedo) [µg/mL] | MIC (Penicillium italicum) [µg/mL] | MIC [1] [µg/mL] | IC50 (α-glucosidase) [µM] | IC50 (HeLa cells [2]; Homo sapiens) [µM] | IC50 (K562 cells; Homo sapiens) [µM] | IC50 (MDA-MB-231 cells; Homo sapiens) [µM] | IC50 [3] [µM] | further results
1 | OC(Cn1cncn1)(Cn1cncn1)c1ccc(F)cc1F [Fluconazole, reference compound] | – | – | – | – | – | 1000 (≈ 3.27 mM) | 500 (≈ 1.63 mM) | 1000 (≈ 3.27 mM) | 1000 (≈ 3.27 mM) | 250 (≈ 0.816 mM) | – | – | – | – | – | –
2 | [H]/N=C(/N)N[C@H]1[C@H](O)[C@@H](O)[C@H](O[C@@H]2O[C@@H](C)[C@](O)(C=O)[C@H]2O[C@@H]2O[C@@H](CO)[C@H](O)[C@@H](O)[C@@H]2NC)[C@@H](N/C(N)=N\[H])[C@@H]1O [Streptomycin, reference compound] | 16 (≈ 0.0275 mM) | 62 (≈ 0.107 mM) | 8 (≈ 0.0138 mM) | 62 (≈ 0.107 mM) | 31 (≈ 0.0533 mM) | – | – | – | – | – | – | – | – | – | – | –
3 | N.N.[Cl][Pt][Cl] [cisPt, reference compound] | – | – | – | – | – | – | – | – | – | – | – | – | – | – | – | IC50 (HeLa cells [2]): 4.91 ± 0.74 µM; IC50 (K562 cells): 6.89 ± 0.21 µM; IC50 (MDA-MB-231 cells): 14.7 ± 0.36 µM

The next lines start with results.

Row | MIC (Bacillus subtilis) [µg/mL] | MIC (Escherichia coli) [µg/mL] | MIC (Klebsiella oxytoca) [µg/mL] | MIC (Proteus mirabilis) [µg/mL] | MIC (Staphylococcus aureus) [µg/mL] | MIC (Aspergillus flavus) [µg/mL] | MIC (Aspergillus niger) [µg/mL] | MIC (Mucor mucedo) [µg/mL] | MIC (Penicillium italicum) [µg/mL] | MIC [1] [µg/mL] | IC50 (α-glucosidase) [µM] | Compound | IC50 (HeLa cells [2]; Homo sapiens) [µM] | IC50 (K562 cells; Homo sapiens) [µM] | IC50 (MDA-MB-231 cells; Homo sapiens) [µM] | IC50 [3] [µM] | further results
4 | 3250 (≈ 8.92 mM) | 1620 (≈ 4.45 mM) | 1620 (≈ 4.45 mM) | 810 (≈ 2.22 mM) | 3250 (≈ 8.92 mM) | 1620 (≈ 4.45 mM) | 1620 (≈ 4.45 mM) | 1620 (≈ 4.45 mM) | 1620 (≈ 4.45 mM) | 400 (≈ 1.1 mM) | 192 ± 5.95 | COC(=O)C1=C(C)N(C)C(=S)NC1c1ccc(OC(C)=O)c(OC)c1 (stereo not drawn) [4g] | 197 ± 3.55 | 153 ± 2.58 | > 200 | 193 ± 9.59 | –
5 | 3250 (≈ 8.59 mM) | 3250 (≈ 8.59 mM) | 3250 (≈ 8.59 mM) | 3250 (≈ 8.59 mM) | 3250 (≈ 8.59 mM) | 1620 (≈ 4.28 mM) | 1620 (≈ 4.28 mM) | 1620 (≈ 4.28 mM) | 1620 (≈ 4.28 mM) | 810 (≈ 2.14 mM) | 933 ± 25.2 | CCOc1cccc(C2NC(=S)N(C)C(C)=C2C(=O)OC)c1OC(C)=O (stereo not drawn) [4h] | 121 ± 9.96 | 79.9 ± 6.73 | 114 ± 12.9 | 77.8 ± 2.57 | –
6 | 3250 (≈ 7.62 mM) | 3250 (≈ 7.62 mM) | 3250 (≈ 7.62 mM) | 1620 (≈ 3.8 mM) | 3250 (≈ 7.62 mM) | 1620 (≈ 3.8 mM) | 1620 (≈ 3.8 mM) | 1620 (≈ 3.8 mM) | 1620 (≈ 3.8 mM) | 400 (≈ 0.938 mM) | – | COC(=O)C1=C(C)N(C)C(=S)NC1c1ccc(OC(=O)c2ccccc2)c(OC)c1 (stereo not drawn) [4j, methyl 4-(4′-benzoyloxy-3′-methoxyphenyl)-1,2,3,4-tetrahydro-1,6-dimethyl-2-thioxopyrimidine-5-carboxylate] | 78.1 ± 5.78 | 68 ± 6.53 | 123 ± 2.19 | 104 ± 8.61 | –
7 | 3250 (≈ 7.38 mM) | 3250 (≈ 7.38 mM) | 3250 (≈ 7.38 mM) | 3250 (≈ 7.38 mM) | 3250 (≈ 7.38 mM) | 810 (≈ 1.84 mM) | 1620 (≈ 3.68 mM) | 1620 (≈ 3.68 mM) | 1620 (≈ 3.68 mM) | 200 (≈ 0.454 mM) | 1080 ± 54.5 | COC(=O)C1=C(C)N(C)C(=S)NC1c1ccc(OC(=O)c2ccc(C)cc2)c(OC)c1 (stereo not drawn) [4k] | 43.6 | 39.1 ± 2.9 | 74.1 ± 1.25 | 87.2 ± 7.31 | selectivity coefficient (HeLa cells [2]; HeLa compared with MRC-5 cells): 2; selectivity coefficient (K562 cells; K562 compared with MRC-5 cells): 2.23; percentage of HeLa cells in the G1 phase (HeLa cells [4]): pronounced increase; percentage of dead cells within subG1 phase (HeLa cells [4]): increase; percentages of cells within the S and G2/M phases (HeLa cells [4]): decreased; cell death mode (apoptosis) (HeLa cells [5]): activate apoptosis

From article PMC9610702, “Synthesis, Characterization, and Biological Evaluation of Tetrahydropyrimidines: Dual-Activity and Mechanism of Action” (Pharmaceutics, 2022)
